Key:
Format in all cases: cell-based
[1] = system: TEL-FLT3-BaF3; test: Cell proliferation (CCK-8, 72 h), TEL-FLT3-BaF3; conditions: Mus musculus, BaF3 expressing FLT3 kinase
Source text: (§1) In this example, human gastrointestinal stromal tumor cell line GIST-T1 (expressing wild-type C-KIT gene) (purchased from Cosmo Bio Co., Ltd. (Japan)), human gastrointestinal stromal tumor cell line GIST-T1-T670I (expressing C-KIT-T670I mutant gene) (constructed by our laboratory with CRISPR technology), mouse […] BaF3 (purchased from ATCC) were used. In addition, in this Example, mouse Tel-cKit-BaF3 (stably expressing C-KIT wild-type kinase), mouse Tel-cKit/T670I-BaF3 (stably expressing cKIT T670I mutant kinase), mouse Tel-PDGFRα-BaF3 (stably expressing PDGFRα kinase), mouse Tel-PDGFRβ-BaF3 (stably expressing PDGFRβ kinase), mouse Tel-VEGFR2-BaF3 (stably expressing VEGFR2 kinase), mouse Tel-FLT3-BaF3 (stably expressing FLT3 kinase) were also used. The above cell lines were all constructed by our laboratory. The construction method was as follows: the human C-KIT, C-KIT T670I, PDGFRα, PDGFRβ, VEGFR2, FLT3 kinase region sequences were amplified by PCR respectively and inserted into MSCV-Puro vector (purchased from Clontech) with N-terminal TEL fragment and/or NPM fragment and/or TPR fragment respectively, which was stably transferred into mouse BaF3 cells by retroviral method, and IL-3 growth factor was removed, and finally the cell lines in which protein was transferred depending on C-KIT, C-KIT/T670I, PDGFRα, PDGFRβ, VEGFR2, FLT3 were obtained. The GIST-T1-T670I (expressing C-KIT-T670I mutant gene) cell line was constructed by our laboratory. The construction method was as follows: the sgRNA targeting near the T670 site of the KIT gene was designed by the CRISPR design tool of the Zhang Feng Laboratory of the Massachusetts Institute of Technology (URL: crispr.mit.edu) and cloned into pSpCas9(BB)-2A-Puro vector (Addgene, USA); the obtained vector and a single-stranded oligonucleotide with T670I mutation near the T670 site were co-transfected into the cells, and after antibiotic selection, they were diluted and cultured in a single cell in a 96-well plate; the T670 site of the cells was sequenced and verified by the Sanger sequencing method.

[2] = system: BaF3; test: Cell proliferation (CCK-8, 72 h), parental BaF3; conditions: Mus musculus, parental BaF3 cells
Source text: as §1

[3] = system: TEL-cKIT-BaF3; test: Cell proliferation (CCK-8, 72 h), TEL-cKIT-BaF3; conditions: Mus musculus, BaF3 expressing wild-type C-KIT kinase
Source text: as §1

[4] = system: TEL-cKIT/T670I-BaF3; test: Cell proliferation (CCK-8, 72 h), TEL-cKIT/T670I-BaF3; conditions: Mus musculus; BaF3 expressing cKIT T670I mutant kinase, 72 h, CCK-8; read-out: GI50 TEL-cKIT/T670I-BaF3
Source text: as §1

Compound | GI50 [1] | GI50 [2] | GI50 [3] | GI50 [4]
CSCCC(N)C(=O)Nc1nc(C)c(-c2ccc3c(/C=C/c4ccccn4)n[nH]c3c2)s1 (centres unmarked) [Compound 15, (E)-2-amino-N-(4-methyl-5-(3-(2-(pyridin-2-yl)vinyl)-1H-indazol-6-yl)thiazol-2-yl)-4-(methylthio)butanamide] | 2 nM | 594 nM | 961 nM | 16 nM
Cc1nc(NC(=O)C2CCN(C)CC2)sc1-c1ccc2c(/C=C/c3ccccn3)n[nH]c2c1 [Compound 16, (E)-1-methyl-N-(4-methyl-5-(3-(2-(pyridin-2-yl)vinyl)-1H-indazol-6-yl)thiazol-2-yl)piperidin-4 carboxamide] | 2150 nM | 1510 nM | 1350 nM | 323 nM
Cc1nc(NC(=O)C(C)N)sc1-c1ccc2c(/C=C/c3ccccn3)n[nH]c2c1 (centres unmarked) [Compound 17, (E)-2-amino-N-(4-methyl-5-(3-(2-(pyridin-2-yl)vinyl)-1H-indazol-6-yl)thiazol-2-yl)propionamide] | 4 nM | 544 nM | 460 nM | 88 nM
Cc1nc(NC(=O)C(N)CC(C)C)sc1-c1ccc2c(/C=C/c3ccccn3)n[nH]c2c1 (centres unmarked) [Compound 18, (E)-2-amino-4-methyl-N-(4-methyl-5-(3-(2-(pyridin-2-yl)vinyl)-1H-indazol-6-yl)thiazol-2-yl)pentanamide] | 6 nM | 706 nM | 507 nM | 37 nM
Cc1nc(NC(=O)C(C)C)sc1-c1ccc2c(/C=C/c3ccccn3)n[nH]c2c1 [Compound 19, (E)-N-(4-methyl-5-(3-(2-(pyridin-2-yl)vinyl)-1H-indazol-6-yl)thiazol-2-yl) isobutanamide] | 4 nM | 1580 nM | 519 nM | 41 nM
Cc1nc(NC(=O)C(N)Cc2ccccc2)sc1-c1ccc2c(/C=C/c3ccccn3)n[nH]c2c1 (centres unmarked) [Compound 20, (E)-2-amino-N-(4-methyl-5-(3-(2-(pyridin-2-yl)vinyl)-1H-indazol-6-yl)thiazol-2-yl)-3-phenylpropionamide] | 3 nM | 708 nM | 361 nM | 37 nM
Cc1nc(NC(=O)CN2CCN(C)CC2)sc1-c1ccc2c(-c3cnn(C)c3)n[nH]c2c1 [Compound 21, N-(4-methyl-5-(3-(1-methyl-1H-pyrazol-4-yl)-1H-indazol-6-yl)thiazol-2-yl)-2-(4-methylpiperazin-1-yl)acetamide] | 68 nM | > 10000 nM | 2740 nM | 984 nM
Cc1nc(NC(=O)C(O)CC(C)C)sc1-c1ccc2c(/C=C/c3ccccn3)n[nH]c2c1 (centres unmarked) [Compound 22, (E)-2-hydroxyl-4-methyl-N-(4-methyl-5-(3-(2-(pyridin-2-yl)vinyl)-1H-indazol-6-yl)thiazol-2-yl)pentanamide] | 2 nM | 1530 nM | 1010 nM | 34 nM
Cc1nc(NC(=O)CN2CCN(C)CC2)sc1-c1ccc2c(-c3cnc(N)nc3)n[nH]c2c1 [Compound 23, N-(5-(3-(2-aminopyrimidin-5-yl)-1H-indazol-6-yl)-4-methylthiazol-2-yl)-2-(4-methylpiperazin-1-yl)acetamide] | 0.5 nM | 1560 nM | 133 nM | 13 nM
Cc1nc(NC(=O)CN2CCN(C)CC2)sc1-c1ccc2c(-c3cccnc3)n[nH]c2c1 [Compound 24, N-(4-methyl-5-(3-(pyridin-3-yl)-1H-indazol-6-yl)thiazol-2-yl)-2-(4-methylpiperazin-1-yl)acetamide] | 12 nM | 5130 nM | 3210 nM | 114 nM
Cc1nc(NC(=O)CN2CCN(C)CC2)sc1-c1ccc2c(-c3cncc(F)c3)n[nH]c2c1 [Compound 25, N-(5-(3-(5-fluoropyridin-3-yl)-1H-indazol-6-yl)-4-methylthiazole-2-yl)-2-(4-methylpiperazin-1-yl)acetamide] | 18 nM | 1690 nM | 1460 nM | 241 nM

From patent publication US12162876B2, “Indazole kinase inhibitor and use thereof” (Tarapeutics Science Inc., priority 2018, dated 2024)
